From US11639350B2, “Heteroaryldihydropyrimidine derivatives and methods of treating hepatitis B infections” (Janssen Pharmaceutica NV, priority 2018, dated 2023)
Read-outs that look alike come from different tables or passages of the source.

Legend:
[1] = Cytotoxicity determination in HepG2.2.15 cells (CCK-8); assay type: cell-based; settings: human, 6 days of compound treatment, CCK-8, highest concentration 100 μM
Experimental: (§1) HBV replication inhibition by the compounds of this invention as well as cytotoxicity determination was determined in cells infected or transfected with HBV, or cells with stably integrated HBV, such as HepG2.2.15 cells (Sells et al. 1987). The method used herein is as follows.
(§2) The HepG2.2.15 cells were seeded into 96-well plate in 2% FBS (Fetal bovine serum) culture medium at the density of 40,000 cells/well and 5,000 cells/well for HBV inhibitory activity and cytotoxicity determination, respectively. After seeding, the cell plates were incubated at 37° C., 5% CO2 overnight. The next day, medium containing compounds were added to treat the cells for 6 days with medium refreshed once in the middle of the treatment. Eight dose points with 3 folds dilution of each compound were adopted and the highest concentration of the compounds was 10 μM and 100 μM for HBV inhibitory activity and cytotoxicity determination, respectively.
After 6 days of compounds treatment, 20 μl CCK-8 (Cell Counting Kit-8 (Tianjin Biolite company)) reagents were added to each well of cytotoxicity assay plates, the plate was incubated at 37° C., 5% CO2 for 2.5 hours and the absorbance at 450 nm wavelength was measured, at the same time the absorbance at 630 nm wavelength was read as reference.
(§3) EC50 and CC50 values are calculated by the GraphPad Prism software and are averages where multiple measurements were made. EC50 values for the other exemplified compounds were either not measured or higher than 1 μM.

HBV = HBV inhibitory activity: HBV DNA in the culture medium of HepG2.2.15 cells by q-PCR; assay type: cell-based; settings: HepG2.2.15 cells, 6 days of compound treatment, HBV DNA in culture medium by q-PCR, highest concentration 10 μM, read-out: EC50
Experimental: as §1, §2
The HBV DAN change in the cell culture medium induced by the compounds was measured by q-PCR (quantitative polymerase chain reaction) method. The HBV DNA in the culture medium was extracted using QIAamp 96 DNA Blood Kit according to the manual and then quantified by q-PCR using the primers and probe in the table below: […]
as §3

[2] = Hepatitis B virus, HepG2.2.15, 144 h

Question: With `COC(=O)C1=C(C2CCC(C(=O)O)C2)NC(c2nccs2)=NC1c1cccc(F)c1Cl` (stereo not shown) [Compound 77, 3-(6-(2-Chloro-3-fluorophenyl)-5-(methoxycarbonyl)-2-(thiazol-2-yl)-3,6-dihydropyrimidin-4-yl)cyclopentanecarboxylic Acid] as the molecule, how does the CC50 at 6 days [1] read?
Answer: 34200 nM

Question: What about the EC50 (HBV; [2]) of the same molecule?
Answer: 71 nM

Question: What does the source list for `CCOC(=O)C1=C([C@@H]2CC[C@H](C(=O)O)OC2)NC(c2nccs2)=NC1c1ccc(F)cc1Cl` (single isomer, unassigned) [Compound 265E, (cis)-5-(−6-(2-Chloro-4-fluorophenyl)-5-(ethoxycarbonyl)-2-(thiazol-2-yl)-3,6-dihydropyrimidin-4-yl)tetrahydro-2H-pyran-2-carboxylic Acid]?
Answer: CC50 at 6 days [1]: 92300 nM; EC50 (HBV): 978 nM

Question: For `CCOC(=O)C1=C([C@H]2C[C@@H](NS(C)(=O)=O)C2(C)C)NC(c2nccs2)=NC1c1ccc(F)cc1Cl` (mixture of isomers) [Compound 437, (cis)-Ethyl 4-(2-chloro-4-fluorophenyl)-6-(2,2-dimethyl-3-(methylsulfonamido)cyclobutyl)-2-(thiazol-2-yl)-1,4-dihydropyrimidine-5-carboxylate], which CC50 at 6 days [1] is on record?
Answer: 4000 nM

Question: What about the EC50 (HBV; [2]) of the same molecule?
Answer: 404 nM

Question: Which results are given for `COC(=O)C1=C(C2CCN(S(=O)(=O)c3cnn(CC(O)C(F)(F)F)c3)CC2)NC(c2nccs2)=NC1c1ccc(F)c(F)c1Cl` (stereo not shown) [Compound 325, Methyl 4-(2-chloro-3,4-difluorophenyl)-2-(thiazol-2-yl)-6-(1-((1-(3,3,3-trifluoro-2-hydroxypropyl)-1H-pyrazol-4-yl)sulfonyl)piperidin-4-yl)-1,4-dihydropyrimidine-5-carboxylate]?
Answer: CC50 at 6 days [1]: 7900 nM; EC50 (HBV; [2]): 5 nM

Question: Which CC50 at 6 days [1] does the source give for `COC(=O)C1=C(C2CNC(=O)C2)NC(c2nccs2)=NC1c1cccc(F)c1Cl` (stereo not shown) [Compound 284, methyl 4-(2-chloro-3-fluorophenyl)-6-(−5-oxopyrrolidin-3-yl)-2-(thiazol-2-yl)-1,4-dihydropyrimidine-5-carboxylate] here?
Answer: 21100 nM

Question: And the EC50 (HBV; [2])?
Answer: 226 nM

Question: Which results are given for `COC(=O)C1=C(C2CCN(S(=O)(=O)C3CN(CCOC(C)(C)C)C3)CC2)NC(c2nccs2)=NC1c1ccc(F)c(F)c1Cl` (stereo not shown) [Compound 248, Methyl 6-(1-((1-(2-(tert-butoxy)ethyl)azetidin-3-yl)sulfonyl)piperidin-4-yl)-4-(2-chloro-3,4-difluorophenyl)-2-(thiazol-2-yl)-1,4-dihydropyrimidine-5-carboxylate]?
Answer: CC50 at 6 days [1]: 3500 nM; EC50 (HBV; [2]): 56 nM

Question: For `COC(=O)C1=C(C2CCN(S(=O)(=O)CC34CC(C(=O)O)(C3)C4)CC2)NC(c2nccs2)=NC1c1ccc(F)c(F)c1Cl` (stereo not shown) [Compound 456, 3-(((4-(6-(2-Chloro-3,4-difluorophenyl)-5-(methoxycarbonyl)-2-(thiazol-2-yl)-3,6-dihydropyrimidin-4-yl)piperidin-1-yl)sulfonyl)methyl)bicyclo[1.1.1]pentane-1-carboxylic Acid], which CC50 at 6 days [1] is on record?
Answer: 19500 nM

Question: What about the EC50 (HBV; [2]) of the same molecule?
Answer: 43 nM

Question: What does the source list for `CNS(=O)(=O)[C@H]1CC[C@H](C2=C(C(=O)OC)C(c3ccc(F)c(F)c3Cl)N=C(c3c(F)cc(F)cc3F)N2)CC1` (single isomer, unassigned) [Compound 167A, methyl 4-(2-chloro-3,4-difluorophenyl)-6-((trans)-4-(N-methylsulfamoyl)cyclohexyl)-2-(2,4,6-trifluorophenyl)-1,4-dihydropyrimidine-5-carboxylate]?
Answer: CC50 at 6 days [1]: 11600 nM; EC50 (HBV; [2]): 34 nM

Question: For `COCCS(=O)(=O)N1CCC(C2=C(C(=O)OC)C(c3ccc(F)cc3Cl)N=C(c3nccs3)N2)C1` (single isomer, unassigned) [Compound 365, Methyl 4-(2-chloro-4-fluorophenyl)-6-((R*)-1-((2-methoxyethyl)sulfonyl)pyrrolidin-3-yl)-2-(thiazol-2-yl)-1,4-dihydropyrimidine-5-carboxylate], which CC50 at 6 days [1] is on record?
Answer: 21800 nM

Question: And the EC50 (HBV; [2])?
Answer: 61 nM

Question: Which results are given for `CCOC(=O)C1=C(C2CCN(S(=O)(=O)[C@H]3C[C@H](C(=O)O)C3)CC2)NC(c2nccs2)=NC1c1ccc(F)c(F)c1C` (single isomer, unassigned) [Compound 343A, (trans)-3-((4-(6-(3,4-difluoro-2-methylphenyl)-5-(ethoxycarbonyl)-2-(thiazol-2-yl)-3,6-dihydropyrimidin-4-yl)piperidin-1-yl)sulfonyl)cyclobutanecarboxylic Acid]?
Answer: CC50 at 6 days [1]: 40800 nM; EC50 (HBV): 89 nM

Question: For `COC(=O)C1=C([C@H]2CC[C@H](C(=O)OC)CC2)NC(c2nc(C)cs2)=NC1c1ccc(F)cc1Br` (single isomer, unassigned) [Compound 239X, (trans)-Methyl 4-(2-bromo-4-fluorophenyl)-6-(4-(methoxycarbonyl)cyclohexyl)-2-(4-methylthiazol-2-yl)-1,4-dihydropyrimidine-5-carboxylate], which CC50 at 6 days [1] is on record?
Answer: 14800 nM

Question: And the EC50 (HBV; [2])?
Answer: 149 nM

Question: For `CCOC(=O)C1=C(C2CCN(S(=O)(=O)CCO)CC2)NC(c2nccs2)=NC1c1ccc(F)c(F)c1Cl` (single isomer, unassigned) [Compound 356B, Ethyl 4-(2-chloro-3,4-difluorophenyl)-6-(1-((2-hydroxyethyl)sulfonyl)piperidin-4-yl)-2-(thiazol-2-yl)-1,4-dihydropyrimidine-5-carboxylate], which CC50 at 6 days [1] is on record?
Answer: 12200 nM

Question: What about the EC50 (HBV; [2]) of the same molecule?
Answer: 6 nM

Question: What does the source list for `COC(=O)C1=C(C2CCN(S(=O)(=O)C3CC(O)C3)CC2)NC(c2nccs2)=NC1c1ccc(F)cc1Cl` (single isomer, unassigned) [Compound 335A, Methyl 4-(2-chloro-4-fluorophenyl)-6-(1-((3-hydroxycyclobutyl)sulfonyl)piperidin-4-yl)-2-(thiazol-2-yl)-1,4-dihydropyrimidine-5-carboxylate]?
Answer: CC50 at 6 days [1]: 12200 nM; EC50 (HBV; [2]): 20 nM

Question: With `CCOC(=O)C1=C(C2CCN(S(=O)(=O)C3CC(CC(=O)O)C3)CC2)NC(c2nccs2)=NC1c1ccc(F)c(F)c1Cl` (stereo not shown) [Compound 482A, 2-(3-((4-(6-(2-Chloro-3,4-difluorophenyl)-5-(ethoxycarbonyl)-2-(thiazol-2-yl)-3,6-dihydropyrimidin-4-yl)piperidin-1-yl)sulfonyl)cyclobutyl)acetic Acid] as the molecule, how does the CC50 at 6 days [1] read?
Answer: 15300 nM

Question: And the EC50 (HBV; [2])?
Answer: 6 nM

Question: Which results are given for `COC(=O)C1=C([C@H]2CC[C@H](S(=O)(=O)N3CC[C@@H](C(=O)O)C3)CC2)NC(c2nccs2)=NC1c1ccc(F)c(F)c1Cl` (stereo in doubt) [Compound 293C, (trans)-1-((4-((R)-6-(2-Chloro-3,4-difluorophenyl)-5-(methoxycarbonyl)-2-(thiazol-2-yl)-3,6-dihydropyrimidin-4-yl)cyclohexyl)-sulfonyl)pyrrolidine-3-carboxylic Acid]?
Answer: CC50 at 6 days [1]: 85700 nM; EC50 (HBV; [2]): 150 nM

Question: With `COC(=O)C1=C([C@H]2CC[C@H](CC(=O)O)CC2)NC(c2nccs2)=NC1c1cccc(F)c1Cl` (relative stereo) [Compound 29, 2-(trans-4-(6-(2-Chloro-3-fluorophenyl)-5-(methoxycarbonyl)-2-(thiazol-2-yl)-3,6-dihydropyrimidin-4-yl)cyclohexyl)acetic Acid] as the molecule, how does the CC50 at 6 days [1] read?
Answer: 33600 nM

Question: And the EC50 (HBV; [2])?
Answer: 123 nM

Question: Which CC50 at 6 days [1] does the source give for `COC(=O)C1=C(C2CCN(S(=O)(=O)C3CC3)CC2)NC(c2nccs2)=NC1c1ccc(F)cc1Cl` (stereo not shown) [Compound 100, Methyl 4-(2-chloro-4-fluorophenyl)-6-(1-(cyclopropylsulfonyl)-piperidin-4-yl)-2-(thiazol-2-yl)-1,4-dihydropyrimidine-5-carboxylate] here?
Answer: 7200 nM

Question: What about the EC50 (HBV; [2]) of the same molecule?
Answer: 166 nM
